# What was measured:
# [1] = system: BV-2; assay: Inhibition of LPS-induced nitric oxide production in […] cells after 24 hrs by Griess assay; assay type: functional, cell-based; settings: Mus musculus, BV-2, 24 h
# [2] = Cytotoxicity against […] cells assessed as cell viability by MTT assay relative to control; assay type: cell-based, BV-2; design: concentration or dose not given beside the values; settings: Mus musculus, read-out: Activity
SMILES,IC50 [1] [µM],viability [2] [%]
C=C(C(=O)O)[C@@H]1CC[C@]2(C)[C@@H](C1)C(C)=C[C@H]1[C@@H]2C[C@]1(C(=O)O)[C@@H]1CC[C@H](C)[C@@H]2CC(=O)C(C)=C2C1,39.8,91.1
C=C(C(=O)O)[C@@H]1CC[C@H](C)C2=C(C1)[C@@]1(C)C[C@@H]2[C@](C(=O)O)([C@@H]2CC[C@H](C)[C@@H]3CC(=O)C(C)=C3C2)C1,38.6,90.7
C=C(C(=O)O)[C@@H]1CC[C@H](C)C2=C(C1)[C@]1(C)C[C@H]2C[C@@]1(C(=O)O)[C@@H]1CC[C@H](C)[C@@H]2CC(=O)C(C)=C2C1,32.7,90.7
C=C(C(=O)O)[C@@H]1CC[C@]2(C)[C@@H](C1)C(C)=C[C@@H](OC(=O)C(=C)[C@@H]1CC[C@H](C)[C@@H]3CC(=O)C(C)=C3C1)[C@@H]2O,33,96.7
C=C(C(=O)O)[C@@H]1CC[C@H](C)C2=C[C@@H]3[C@@]4(CC2(C1)[C@@]3(C)O)C(=O)O[C@]12C[C@H]4CC[C@H](C)[C@@H]1CC[C@]2(C)O,43.6,77.3
C=C(C(=O)O)[C@@H]1CC[C@@]2(C)[C@@H](OC(=O)C(=C)[C@@H]3CC[C@H](C)[C@@H]4CC(=O)C(C)=C4C3)C=C(C(C)=O)[C@@]2(O)C1,30.1,95.4
C=C(C(=O)O)[C@@H]1CC[C@H](C)C2=C(C1)[C@]1(C)C[C@H]2C[C@@]1(C(=O)O)[C@@H]1CC[C@H](C)[C@@H]2CC(=O)C(C)=C2[C@H]1O,23,91.1
C=C(C(=O)O)[C@@H]1CC[C@@]2(C)C=C[C@@H]3[C@@](C)(C[C@@]3(C(=O)O)[C@@H]3CC[C@H](C)[C@@H]4CC(=O)C(C)=C4C3)[C@@H]2C1,27.3,95.7
C=C(C(=O)O)[C@@H]1CC[C@H](C)C23C[C@]4(C(=O)O[C@]56C[C@H]4CC[C@H](C)[C@@H]5CC[C@]6(C)O)[C@@H](C(C)=C2C1)[C@@H]3O,71.8,91.8
C=C(C(=O)O)[C@@H]1CC[C@H](C)[C@]23C[C@H](C(C)=C2C1)[C@]1(C3)C(=O)O[C@]23C[C@H]1CC[C@H](C)[C@@H]2CC[C@]3(C)O,17,89.1
O=c1c(O)c(-c2ccc(O)c(O)c2)oc2cc(O)cc(O)c12 [QUERCETIN],8.7,99.5
C=C(C(=O)O)[C@@H]1CC[C@@]2(C)C[C@@H](OC(=O)C(=C)[C@@H]3CC[C@H](C)[C@@H]4CC(=O)C(C)=C4C3)C[C@@](C)(O)[C@@H]2C1,40.6,97.2
C=C(C(=O)O)[C@@H]1CC[C@]2(C)C(=C(C)[C@@H](O)[C@H]3[C@@H]2C[C@]3(C(=O)O)[C@@H]2CC[C@H](C)[C@@H]3CC(=O)C(C)=C3C2)C1,29.8,94.6
